Laboratory results published in US10168342B2, “Lipid probes and uses thereof” (THE SCRIPPS RESEARCH INSTITUTE, priority 2015, dated 2019).
Where two headings read alike, the source gives them in different places.

Key:
[1] = target: T1, AEA-DA lipid probe targets in Neuro2a cells (Mus musculus, UniProt O89023); conditions: competitor 25 μM
T1 sequence (O89023 195-562): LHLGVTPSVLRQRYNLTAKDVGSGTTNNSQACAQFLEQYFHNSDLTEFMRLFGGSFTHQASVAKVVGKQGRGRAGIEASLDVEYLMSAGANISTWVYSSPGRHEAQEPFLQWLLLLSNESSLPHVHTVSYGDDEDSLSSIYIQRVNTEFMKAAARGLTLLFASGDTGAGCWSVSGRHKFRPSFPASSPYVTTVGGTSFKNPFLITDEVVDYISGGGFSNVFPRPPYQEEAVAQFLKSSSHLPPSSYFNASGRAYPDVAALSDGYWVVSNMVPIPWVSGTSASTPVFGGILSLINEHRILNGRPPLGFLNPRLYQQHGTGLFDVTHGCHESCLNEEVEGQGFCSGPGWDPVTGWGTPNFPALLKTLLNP

[2] = target: T2, AEA-DA lipid probe targets in Neuro2a cells (Mus musculus, UniProt P54071); conditions: competitor 25 μM
T2 sequence (P54071 40-452): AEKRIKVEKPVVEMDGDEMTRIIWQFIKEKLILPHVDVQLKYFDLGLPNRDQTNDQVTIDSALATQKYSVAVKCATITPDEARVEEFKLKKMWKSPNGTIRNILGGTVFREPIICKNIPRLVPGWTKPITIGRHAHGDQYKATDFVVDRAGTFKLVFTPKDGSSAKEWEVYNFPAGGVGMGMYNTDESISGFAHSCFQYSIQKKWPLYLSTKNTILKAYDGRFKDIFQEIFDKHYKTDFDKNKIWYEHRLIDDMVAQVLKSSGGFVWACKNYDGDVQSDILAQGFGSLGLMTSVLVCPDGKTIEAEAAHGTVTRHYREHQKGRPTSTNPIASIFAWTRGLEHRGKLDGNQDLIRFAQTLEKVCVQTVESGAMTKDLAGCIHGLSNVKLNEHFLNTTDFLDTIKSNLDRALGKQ

[3] = target: AEA-DA lipid probe targets in Neuro2a cells (Mus musculus, UniProt Q9ET22); conditions: competitor 25 μM
Sequence of AEA-DA lipid probe targets in Neuro2a cells (Mus musculus, UniProt Q9ET22) (Q9ET22 37-506): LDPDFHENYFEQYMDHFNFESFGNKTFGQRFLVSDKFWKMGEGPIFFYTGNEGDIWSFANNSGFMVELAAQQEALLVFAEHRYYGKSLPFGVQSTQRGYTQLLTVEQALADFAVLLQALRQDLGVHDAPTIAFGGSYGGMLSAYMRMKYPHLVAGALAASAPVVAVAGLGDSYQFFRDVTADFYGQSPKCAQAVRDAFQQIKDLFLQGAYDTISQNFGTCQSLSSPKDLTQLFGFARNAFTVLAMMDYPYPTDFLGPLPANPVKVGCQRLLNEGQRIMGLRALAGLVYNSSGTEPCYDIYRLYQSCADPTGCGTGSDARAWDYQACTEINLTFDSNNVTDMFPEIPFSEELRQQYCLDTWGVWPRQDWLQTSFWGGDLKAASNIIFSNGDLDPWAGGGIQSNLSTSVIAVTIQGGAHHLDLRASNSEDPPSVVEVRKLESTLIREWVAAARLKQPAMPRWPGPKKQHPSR

[4] = target: T3, AEA-DA lipid probe targets in Neuro2a cells (Mus musculus, UniProt Q8CAQ8); conditions: competitor 25 μM
T3 sequence (Q8CAQ8 34-757): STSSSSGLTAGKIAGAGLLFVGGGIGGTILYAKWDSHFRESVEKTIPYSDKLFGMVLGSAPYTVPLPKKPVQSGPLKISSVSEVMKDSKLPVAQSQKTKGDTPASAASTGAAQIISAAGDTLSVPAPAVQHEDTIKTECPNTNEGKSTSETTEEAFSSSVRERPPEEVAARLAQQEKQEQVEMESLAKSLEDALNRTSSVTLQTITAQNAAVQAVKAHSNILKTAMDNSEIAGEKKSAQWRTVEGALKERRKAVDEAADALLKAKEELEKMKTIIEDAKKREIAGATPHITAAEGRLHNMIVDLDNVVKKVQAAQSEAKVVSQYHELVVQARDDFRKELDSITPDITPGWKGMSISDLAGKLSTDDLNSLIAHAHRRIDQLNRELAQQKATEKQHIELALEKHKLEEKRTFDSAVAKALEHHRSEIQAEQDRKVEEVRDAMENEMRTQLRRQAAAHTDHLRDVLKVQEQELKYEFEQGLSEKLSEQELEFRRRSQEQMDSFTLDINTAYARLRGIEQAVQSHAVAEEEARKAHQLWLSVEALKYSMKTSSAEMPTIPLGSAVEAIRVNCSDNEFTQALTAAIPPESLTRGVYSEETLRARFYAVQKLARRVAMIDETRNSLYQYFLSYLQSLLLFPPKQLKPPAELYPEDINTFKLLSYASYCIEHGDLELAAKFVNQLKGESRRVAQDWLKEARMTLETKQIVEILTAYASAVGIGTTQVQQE

[5] = tested on: AEA-DA lipid probe targets in Neuro2a cells
[6] = target: T4, AEA-DA lipid probe targets in Neuro2a cells (Mus musculus, UniProt Q8BMG8); conditions: competitor 25 μM
T4 sequence (Q8BMG8 1-316): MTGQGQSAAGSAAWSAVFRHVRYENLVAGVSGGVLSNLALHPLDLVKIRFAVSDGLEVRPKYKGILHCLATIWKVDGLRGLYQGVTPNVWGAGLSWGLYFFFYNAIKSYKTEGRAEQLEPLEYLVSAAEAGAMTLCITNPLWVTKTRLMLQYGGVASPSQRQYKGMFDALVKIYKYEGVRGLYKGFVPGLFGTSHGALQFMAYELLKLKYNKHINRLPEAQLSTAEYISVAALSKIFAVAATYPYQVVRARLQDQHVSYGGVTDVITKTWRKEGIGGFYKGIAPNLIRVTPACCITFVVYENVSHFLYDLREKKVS

[7] = target: T5, AEA-DA lipid probe targets in Neuro2a cells (Mus musculus, UniProt Q8BXN9); conditions: competitor 25 μM
T5 sequence (Q8BXN9 22-555): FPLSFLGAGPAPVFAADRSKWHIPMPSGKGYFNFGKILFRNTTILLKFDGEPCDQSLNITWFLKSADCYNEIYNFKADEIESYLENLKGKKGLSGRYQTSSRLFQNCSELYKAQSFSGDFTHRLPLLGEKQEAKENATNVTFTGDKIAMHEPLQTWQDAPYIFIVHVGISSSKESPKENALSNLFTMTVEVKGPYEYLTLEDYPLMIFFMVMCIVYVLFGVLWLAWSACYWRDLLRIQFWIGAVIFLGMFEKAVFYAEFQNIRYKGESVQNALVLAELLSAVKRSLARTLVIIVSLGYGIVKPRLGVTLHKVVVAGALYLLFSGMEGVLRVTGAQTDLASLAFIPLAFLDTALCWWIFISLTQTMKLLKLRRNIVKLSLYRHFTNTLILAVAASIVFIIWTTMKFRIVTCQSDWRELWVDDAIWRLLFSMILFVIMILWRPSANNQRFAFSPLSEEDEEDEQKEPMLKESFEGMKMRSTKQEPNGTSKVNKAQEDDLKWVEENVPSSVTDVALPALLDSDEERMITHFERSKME

With `O=C(/C=C/c1cccnc1)NCCCCC1CCN(C(=O)c2ccccc2)CC1` [FK-866, reference compound] the “SILAC ratio Tpp1” value [1] was 1.0, the “SILAC ratio Idh2” value [2] was 1.2 and the “SILAC ratio Dpp7” value [3] was 1.0. For the same molecule, the “SILAC ratio Immt” value [4] was 1.1, the “competition of probe labeling of NAMPT and ABCB1B” value ([5]; Neuro2a cells, AEA-DA 5 μM, drug 25 μM) was “competed probe-labeling” and the “SILAC ratio, GM20425 (E9Q035)” value ([5]; Neuro2a cells, AEA-DA probe, competitor 25 μM) was 1.2. The “SILAC ratio Akr1c12” value ([5]; competitor 25 μM) was 1.3, the “SILAC ratio H2-K1” value ([5]; competitor 25 μM) was 1.0 and the “SILAC ratio Nup205” value ([5]; competitor 25 μM) was 0.9. For the same molecule, the “SILAC ratio Uncharacterized” value ([5]; competitor 25 μM) was 1.3, the “SILAC ratio, Gm20425” value ([5]; competitor 25 μM) was 1.2 and the “SILAC ratio, Tmpo” value ([5]; competitor 25 μM, first Tmpo line (r51)) was 1.0. The “SILAC ratio, Tmpo” value ([5]; competitor 25 μM, second Tmpo line (r55)) was 1.1, the “SILAC ratio, Slc25a32” value [6] was 1.1 and the “SILAC ratio, Tmem87a” value [7] was 1.1.
